# How the values were obtained:
# A549 = assay: Anti-proliferative activity, CellTiter-96 assay, A549; type: cell-based; details: Homo sapiens, A549 cells, 72 hours incubation
# Method: (§1) Antiproliferative Activity
# (§2) The anti-proliferative activities of the compounds with formula (I) and formula (II) with respect to four human cancer cell lines (A549, A375, MDA-MB-231, and COLO205) were measured using the CellTiter™-96 assay kit (Promega) following the manufacturer's instructions. In brief, the cells were maintained in DMEM containing 10% FCS and incubated at 37° C. in 5% CO2 atmosphere. Cells were plated at a density of 2000 cells/well of a 96-well plate for 24 h, then treated with different concentrations of the compounds, and incubated for another 72 hours. At the end of the incubation, CellTiter™-96 Aqueous One Solution Reagent (Promega) was added and incubated for another 4.0 hours. Cell viability was determined by measuring absorbance at 490 nm using EMax® microplate reader (Molecular Devices). Data were processed and analyzed using GraphPad Prism version 4.
# C-Raf = C-Raf (Homo sapiens (Human), UniProt P04049); assay: Raf kinase assay (C-Raf), [33P] incorporation into MEK1(K97R); type: biochemical
# In short: (§3)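 Recombinant C-Raf (2 ng) or B-Raf or B-Raf V600E (5 ng each) phosphorylated 500 ng MEK1(K97R) with 8 μM ATP plus [33P]ATP, pH 7.5, 30 min at 30 °C. Filter-captured 33P counted. IC50 from 3-fold compound dilutions run in duplicate.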
# COLO205 = assay: Anti-proliferative activity, CellTiter-96 assay, COLO205; type: cell-based; details: Homo sapiens, COLO 205, COLO205 cells, 72 hours incubation
# Method: as §1, §2
# A375 = assay: Anti-proliferative activity, CellTiter-96 assay, A375; type: cell-based; details: Homo sapiens, A-375, A375 cells, 72 hours incubation
# Method: as §1, §2
# MDA-MB-231 = assay: Anti-proliferative activity, CellTiter-96 assay, MDA-MB-231; type: cell-based; details: Homo sapiens, MDA-MB-231 cells, 72 hours incubation
# Method: as §1, §2
# B-Raf (V600E) = B-Raf (V600E) (Homo sapiens (Human), UniProt P15056, V600E); assay: Raf kinase assay (B-Raf (V600E)), [33P] incorporation into MEK1(K97R); type: biochemical
# In short: as §3
# B-Raf = B-Raf (Homo sapiens (Human), UniProt P15056); assay: Raf kinase assay (B-Raf), [33P] incorporation into MEK1(K97R); type: biochemical; details: for inhibition at 1 µM: 1.0 μM compound, read-out: B-Raf inhibition at 1.0 μM
# In short: as §3
# Sequence of C-Raf (P04049 whole entry): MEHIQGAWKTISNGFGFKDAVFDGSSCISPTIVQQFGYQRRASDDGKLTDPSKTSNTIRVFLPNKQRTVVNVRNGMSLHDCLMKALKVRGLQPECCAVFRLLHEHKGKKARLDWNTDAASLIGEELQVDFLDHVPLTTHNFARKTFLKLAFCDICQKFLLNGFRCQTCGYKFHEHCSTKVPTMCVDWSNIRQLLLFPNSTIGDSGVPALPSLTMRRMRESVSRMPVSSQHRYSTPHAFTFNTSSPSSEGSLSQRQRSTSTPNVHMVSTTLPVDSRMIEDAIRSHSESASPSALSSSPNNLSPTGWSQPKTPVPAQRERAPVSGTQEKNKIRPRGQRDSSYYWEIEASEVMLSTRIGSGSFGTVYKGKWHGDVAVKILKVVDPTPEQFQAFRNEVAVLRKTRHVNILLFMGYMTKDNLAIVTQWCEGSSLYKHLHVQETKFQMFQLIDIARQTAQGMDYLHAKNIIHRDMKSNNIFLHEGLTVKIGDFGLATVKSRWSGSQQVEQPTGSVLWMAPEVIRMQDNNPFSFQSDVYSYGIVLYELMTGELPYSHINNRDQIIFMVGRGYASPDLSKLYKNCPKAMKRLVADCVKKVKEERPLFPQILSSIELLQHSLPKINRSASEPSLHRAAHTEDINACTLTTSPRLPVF
# Sequence of B-Raf (P15056 whole entry): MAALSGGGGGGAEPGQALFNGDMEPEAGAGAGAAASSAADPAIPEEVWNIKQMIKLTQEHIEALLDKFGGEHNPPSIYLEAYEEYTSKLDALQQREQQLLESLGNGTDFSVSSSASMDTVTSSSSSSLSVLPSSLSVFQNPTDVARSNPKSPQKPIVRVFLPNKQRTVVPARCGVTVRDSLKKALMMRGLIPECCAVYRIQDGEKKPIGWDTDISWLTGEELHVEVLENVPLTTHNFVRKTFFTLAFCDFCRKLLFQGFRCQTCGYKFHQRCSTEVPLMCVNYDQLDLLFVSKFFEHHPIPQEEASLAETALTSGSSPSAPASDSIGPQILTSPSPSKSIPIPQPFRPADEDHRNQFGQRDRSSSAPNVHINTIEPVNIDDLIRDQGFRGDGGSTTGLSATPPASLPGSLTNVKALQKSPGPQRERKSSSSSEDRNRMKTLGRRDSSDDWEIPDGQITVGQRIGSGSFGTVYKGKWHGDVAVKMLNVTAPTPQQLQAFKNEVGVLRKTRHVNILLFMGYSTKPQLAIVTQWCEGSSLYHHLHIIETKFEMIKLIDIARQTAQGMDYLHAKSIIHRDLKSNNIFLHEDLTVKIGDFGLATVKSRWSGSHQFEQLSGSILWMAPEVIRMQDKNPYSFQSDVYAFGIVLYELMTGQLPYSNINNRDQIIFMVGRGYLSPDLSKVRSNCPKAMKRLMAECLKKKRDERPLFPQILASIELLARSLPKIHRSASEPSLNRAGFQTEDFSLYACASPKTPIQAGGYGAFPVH
# Sequence of B-Raf (V600E) (P15056 whole entry V600E): as the sequence (P15056 whole entry) above, with V600E counted along it
IC50 (A549),IC50 (C-Raf),IC50 (COLO205),IC50 (A375),IC50 (MDA-MB-231),IC50 (B-Raf (V600E)),IC50 (B-Raf),inhibition at 1 µM (B-Raf),SMILES
> 50 µM,751 nM,> 50 µM,> 50 µM,> 50 µM,139 nM,114 nM,91.2%,"COc1cccc(-c2ccc3ncnc(Nc4cccc5[nH]ncc45)c3c2)c1F [Compound 74, 6-(2-fluoro-3-methoxyphenyl)-N-(1H-indazol-4-yl)quinazolin-4-amine]"
5.3 ± 1 µM,300 nM,7.1 ± 1.3 µM,2.3 ± 0.6 µM,9.5 ± 1.3 µM,51.7 nM,27.7 nM,93.4%,"Oc1cccc(Nc2ncnc3ccc(-c4cccc(O)c4)cc23)c1 [Compound 63, 3-(6-(3-hydroxyphenyl)quinazolin-4-ylamino)phenol]"
> 30 µM,147 nM,20.9 ± 12.6 µM,8.2 ± 1.3 µM,> 30 µM,19 nM,8.9 nM,97.9%,"Oc1cc(Nc2ncnc3ccc(-c4ccc(Cl)cc4)cc23)c(F)cc1F [Compound 160, 5-(6-(4-chlorophenyl)quinazolin-4-ylamino)-2,4-difluorophenol]"
6.1 ± 0.6 µM,409 nM,9.6 ± 0.6 µM,7.3 ± 0.6 µM,8.5 ± 1.4 µM,185 nM,188 nM,82.4%,"Oc1ccc(-c2ccc3nccc(Nc4cccc5[nH]ncc45)c3c2)cc1 [Compound 124, 4-(4-(1H-indazol-4-ylamino)quinolin-6-yl)phenol]"
> 50 µM,790 nM,> 50 µM,> 50 µM,> 50 µM,71.6 nM,55.3 nM,90.3%,"COc1cc2ncnc(Nc3cccc(O)c3)c2cc1-c1ccc(O)cc1 [Compound 49, 3-(6-(4-hydroxyphenyl)-7-methoxyquinazolin-4-ylamino)phenol]"
2.7 ± 1.7 µM,287 nM,16.8 ± 9.3 µM,2.9 ± 1.6 µM,2.4 ± 1.1 µM,162 nM,142 nM,83.6%,"COc1cc(-c2ccc3ncnc(Nc4cccc5[nH]nc(Cl)c45)c3c2)ccc1O [Compound 126, 4-(4-(3-chloro-1H-indazol-4-ylamino)quinazolin-6-yl)-2-methoxyphenol]"
2.5 ± 0.8 µM,161 nM,7.8 µM,2.9 ± 0.6 µM,4.7 ± 0.3 µM,37.5 nM,26.8 nM,92%,"COc1cc(-c2ccc3ncnc(Nc4ccc(Cl)c(O)c4)c3c2)ccc1O [Compound 157, 4-(4-(4-chloro-3-hydroxyphenylamino)quinazolin-6-yl)-2-methoxyphenol]"
> 50 µM,584 nM,12.7 ± 2.1 µM,24.5 ± 7.1 µM,12.7 ± 2 µM,151 nM,112 nM,86.6%,"NC(=O)c1cccc(-c2ccc3ncnc(Nc4cccc5[nH]ncc45)c3c2)c1 [Compound 97, 3-(4-(1H-indazol-4-ylamino)quinazolin-6-yl)benzamide]"
7 ± 2.4 µM,860 nM,15.7 ± 4.1 µM,4.9 ± 1.7 µM,11.5 ± 3.8 µM,76.6 nM,55.8 nM,83.7%,"COc1cc2ncnc(Nc3cccc(O)c3)c2cc1-c1ccc(N)cc1 [Compound 68, 3-(6-(4-aminophenyl)-7-methoxyquinazolin-4-ylamino)phenol]"
2.9 ± 0.4 µM,69.2 nM,7.9 ± 1.9 µM,2.3 ± 0.5 µM,4.3 ± 0.6 µM,19.7 nM,11.1 nM,97.4%,"COc1cc(-c2ccc3ncnc(Nc4cc(O)c(Cl)cc4F)c3c2)ccc1O [Compound 159, 2-chloro-4-fluoro-5-(6-(4-hydroxy-3-methoxyphenyl)quinazolin-4-ylamino)phenol]"
1.6 ± 0.3 µM,404 nM,7.7 ± 0.3 µM,1.4 ± 0.1 µM,1.6 ± 0.4 µM,157 nM,121 nM,86%,"COc1cc(-c2ccc3ncnc(Nc4cccc5[nH]ncc45)c3c2)ccc1O [Compound 51, 4-(4-(1H-indazol-4-ylamino)quinazolin-6-yl)-2-methoxyphenol]"
10.8 ± 0.7 µM,1330 nM,8.3 ± 0.4 µM,23.6 ± 1.2 µM,19.5 ± 2.1 µM,152 nM,149 nM,78.2%,"Nc1ccc(F)c(-c2ccc3nccc(Nc4cccc5[nH]ncc45)c3c2)c1 [Compound 137, 6-(5-amino-2-fluorophenyl)-N-(1H-indazol-4-yl)quinolin-4-amine]"
1.3 ± 0.3 µM,2150 nM,8.5 ± 2.3 µM,2.3 ± 0.1 µM,1.8 ± 0.2 µM,760 nM,900 nM,–,"COc1cc(-c2ccc3ncnc(Nc4ccccc4)c3c2)ccc1O [Compound 1, 2-methoxy-4-(4-(phenylamino)quinazolin-6-yl)phenol]"
0.6 ± 0.3 µM,290 nM,4.5 ± 0.6 µM,0.7 ± 0.1 µM,0.9 ± 0.2 µM,64.7 nM,36.5 nM,92.6%,"COc1cc(-c2ccc3ncnc(Nc4cc(O)ccc4Cl)c3c2)ccc1O [Compound 59, 4-(4-(2-chloro-5-hydroxyphenylamino)quinazolin-6-yl)-2-methoxyphenol]"
4.8 ± 1.6 µM,287 nM,2.6 ± 0.4 µM,6.3 ± 0.7 µM,6.2 ± 0.6 µM,123 nM,99.2 nM,82.3%,"N#Cc1cccc(-c2ccc3nccc(Nc4cccc5[nH]ncc45)c3c2)c1 [Compound 114, 3-(4-(1H-indazol-4-ylamino)quinolin-6-yl)benzonitrile]"
14.2 ± 0.8 µM,495 nM,15.9 ± 4.1 µM,11.4 ± 3 µM,23.2 ± 2 µM,209 nM,174 nM,83%,"Fc1ccc(-c2ccc3ncnc(Nc4cccc5[nH]ncc45)c3c2)cc1F [Compound 85, 6-(3,4-difluorophenyl)-N-(1H-indazol-4-yl)quinazolin-4-amine]"

# — patent US8785459B2, “Quinazoline compounds as kinase inhibitors” (Development Center for Biotechnology, priority 2011, dated 2014)
